By IC50 is commonly meant the concentration at which inhibition is half-maximal. Low readings indicate inhibition by little substance, high ones a need for much substance.

Here are results for 40 molecules from ChEMBL document CHEMBL4118246, “Discovery and evaluation of 3,5-disubstituted indole derivatives as Pim kinase inhibitors” (Bioorg Med Chem Lett, 2018).

For experiment [1], the target named is Serine/threonine-protein kinase pim-1 (Homo sapiens, UniProt P11309).
Description: Inhibition of PIM1 (unknown origin)
Experiment [2] deals with Serine/threonine-protein kinase pim-3 (Homo sapiens, UniProt Q86V86). Put plainly: Inhibition of PIM3 (unknown origin).
Experiment [3] deals with Serine/threonine-protein kinase pim-2 (Homo sapiens, UniProt Q9P1W9). The experiment is described as follows: Inhibition of PIM2 (unknown origin).
For another experiment, the system named is MV4-11. The experiment is described as follows: Growth inhibition of human MV4-11 cells. It counts as functional, cell-based.
Experiment [4] deals with HepG2. Put plainly: Cell cycle arrest in human HepG2 cells assessed as accumulation at S phase at 10 uM by FACS analysis relative to control. In kind it is functional. In general terms: In flow cytometry, cells or beads pass a laser one at a time.
In experiment [5] the test system is HepG2. The experiment is described as follows: Cell cycle arrest in human HepG2 cells assessed as accumulation at G2/M phase at 1 uM by FACS analysis relative to control. In kind it is functional.
For experiment [6], the system named is HepG2. Put plainly: Cell cycle arrest in human HepG2 cells assessed as accumulation at S phase at 1 uM by FACS analysis relative to control. It counts as functional.
The test system of experiment [7] is HepG2. Put plainly: Cell cycle arrest in human HepG2 cells assessed as accumulation at sub-G1 phase at 10 uM by FACS analysis relative to control. It counts as functional.
In experiment [8] the test system is HepG2. Put plainly: Cell cycle arrest in human HepG2 cells assessed as accumulation at G0/G1 phase at 10 uM by FACS analysis relative to control. It counts as functional.
The test system of experiment [9] is HepG2. Put plainly: Cell cycle arrest in human HepG2 cells assessed as accumulation at sub-G1 phase at 1 uM by FACS analysis relative to control. It counts as functional.
The subject of experiment [10] is HepG2. Put plainly: Cell cycle arrest in human HepG2 cells assessed as accumulation at G2/M phase at 10 uM by FACS analysis relative to control. In kind it is functional.
For experiment [11], the system named is HepG2. The experiment is described as follows: Cell cycle arrest in human HepG2 cells assessed as accumulation at G0/G1 phase at 1 uM by FACS analysis relative to control. It counts as functional.

Serine/threonine-protein kinase pim-2, sequence (Q9P1W9 whole entry): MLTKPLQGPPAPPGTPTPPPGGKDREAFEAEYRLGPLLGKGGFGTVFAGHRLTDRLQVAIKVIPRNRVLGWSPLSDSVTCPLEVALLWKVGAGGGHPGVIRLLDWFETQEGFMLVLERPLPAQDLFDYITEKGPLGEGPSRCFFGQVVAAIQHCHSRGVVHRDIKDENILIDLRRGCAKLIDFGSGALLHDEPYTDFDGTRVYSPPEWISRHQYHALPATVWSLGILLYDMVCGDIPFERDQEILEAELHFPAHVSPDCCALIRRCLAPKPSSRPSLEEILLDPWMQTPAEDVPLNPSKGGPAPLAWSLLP
Serine/threonine-protein kinase pim-1, sequence (P11309 whole entry): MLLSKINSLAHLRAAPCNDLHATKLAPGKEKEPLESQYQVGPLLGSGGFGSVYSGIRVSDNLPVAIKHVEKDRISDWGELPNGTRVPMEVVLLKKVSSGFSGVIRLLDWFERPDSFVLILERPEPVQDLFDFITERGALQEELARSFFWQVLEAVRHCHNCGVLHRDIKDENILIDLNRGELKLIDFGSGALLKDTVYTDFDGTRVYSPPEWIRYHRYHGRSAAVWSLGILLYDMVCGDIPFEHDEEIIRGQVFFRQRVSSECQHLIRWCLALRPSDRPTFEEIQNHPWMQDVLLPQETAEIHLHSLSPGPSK

For the molecule `CN(C)CCNc1cncc(-c2ccc3[nH]cc(-c4ccnc(N)n4)c3c2)n1`, the IC50 is 3 nM in [1] and 7 nM in experiment [2].
Turning to `NCCNc1cncc(-c2ccc3[nH]cc(-c4ccccc4F)c3c2)n1`, the IC50 in [3] is 230 nM; in experiment [1], 5 nM; in [2], 7 nM.
On to `CC(=O)c1ccc(F)c(-c2c[nH]c3ccc(-c4cncc(NCCN(C)C)n4)cc23)c1`, for which the IC50 amounted to 220 nM in [3], 6300 nM in the experiment on MV4-11, 3 nM in [1] and 7 nM in [2].
For `CN(C)CCNc1cncc(-c2ccc3[nH]cc(-c4cccc(N)c4)c3c2)n1`, the results for the IC50 in [3], in [1] and in [2] were 820 nM, 19 nM and 40 nM, respectively.
The like results for `CN(C)CCNc1cncc(-c2ccc3[nH]cc(-c4ccc(C(F)(F)F)cc4)c3c2)n1` were, in that order, 5800 nM, 67 nM and 247 nM.
The like results for `CN(C)CCNc1cncc(-c2ccc3[nH]cc(-c4ccc(C(F)(F)F)c(F)c4)c3c2)n1` were, in that order, 7950 nM, 256 nM and 589 nM.
Regarding `OCCc1cncc(-c2ccc3[nH]cc(-c4ccccc4F)c3c2)n1`, the IC50 is over 10000 nM in experiment [3], 885 nM in experiment [1] and 3050 nM in experiment [2].
Take `Fc1ccccc1-c1c[nH]c2ccc(-c3cncc(N4CCCNCC4)n3)cc12`: the IC50 in experiment [3] is 537 nM; in [1] it was 12 nM; in experiment [2], 16 nM.
Taken in the same sequence, the figures for `CN(C)CCNc1cncc(-c2ccc3[nH]cc(-c4ccc(C#N)cc4)c3c2)n1` were 2540 nM, 33 nM and 155 nM.
Regarding `CN(C)CCNc1cncc(-c2ccc3[nH]cc(-c4ccc(N)c(C#N)c4)c3c2)n1`, the Activity amounted to 23.1% in the experiment on HepG2 [4]; 16.5% in the experiment with HepG2 [5]; 21.7% in the experiment on HepG2 [6]; 2.6% in the experiment with HepG2 [7]; 53% in the experiment with HepG2 [8]; 3.4% with HepG2 [9]. Moreover, the Activity was 15.8% in the experiment with HepG2 [10] and 52.3% in the experiment with HepG2 [11]. Further, the IC50 in experiment [3] is 259 nM; in the experiment with MV4-11, 800 nM; in experiment [1] it was 5 nM; in experiment [2], 10 nM.
Take `CN(C)CCNc1cncc(-c2ccc3[nH]cc(-c4ccc(F)c(C(F)(F)F)c4)c3c2)n1`: the IC50 in experiment [3] worked out at 4320 nM; in [1] it was 144 nM; in experiment [2], 183 nM.
As to `CN(C)CCCOc1cncc(-c2ccc3[nH]cc(-c4ccc(C(F)(F)F)cc4)c3c2)n1`, the figures for the half-maximal inhibitory concentration (IC50) in experiment [3], in experiment [1] and in experiment [2] were over 10000 nM, 307 nM and 905 nM, respectively.
The like results for `CN(C)CCNc1cncc(-c2ccc3[nH]cc(-c4cccc(C(F)(F)F)c4)c3c2)n1` were, in that order, 2260 nM, 35 nM and 69 nM.
The like results for `CN(C)CCNc1cncc(-c2ccc3[nH]cc(-c4ccccc4F)c3c2)n1` were, in that order, 370 nM, 7 nM and 10 nM.
Regarding `Brc1ccc2[nH]cc(-c3ccccc3)c2c1`, the IC50 in experiment [1] is over 10000 nM.
`CN(C)CCN(C)c1cncc(-c2ccc3[nH]cc(-c4ccc(C(F)(F)F)cc4)c3c2)n1`: the IC50 in experiment [3] is over 10000 nM; in experiment [1] it was 313 nM; in [2] it was 401 nM.
On to `CN(C)CCNc1cncc(-c2ccc3[nH]cc(-c4ccc(S(N)(=O)=O)cc4)c3c2)n1`, for which the Activity with HepG2 [4] is 19.8%; with HepG2 [5], 15.3%; with HepG2 [6] it was 21.3%; with HepG2 [7], 2.4%; in the experiment on HepG2 [8], 58%; in the experiment with HepG2 [9] it was 2.4%. In addition, the figures for the Activity in the experiment on HepG2 [10] and in the experiment on HepG2 [11] were 14.6% and 55.5%, respectively. Besides, the IC50 in [3] was determined as 700 nM; in the experiment with MV4-11 it was 6800 nM; in [1] it was 9 nM; in experiment [2], 26 nM.
Consider `O=C1NCCN1c1cncc(-c2ccc3[nH]cc(-c4ccccc4F)c3c2)n1`, for which the values for the concentration for half-maximal inhibition (IC50) in experiment [3], in experiment [1] and in experiment [2] were over 10000 nM, 257 nM and 273 nM, respectively.
As to `COc1cccc(-c2c[nH]c3ccc(-c4cncc(NCCN(C)C)n4)cc23)c1`, the IC50 in experiment [3] came out at 560 nM; in experiment [1] it was 7 nM; in experiment [2], 19 nM.
As for `CN(C)CCCNc1cncc(-c2ccc3[nH]cc(-c4ccc(C(F)(F)F)cc4)c3c2)n1`, the IC50 was over 10000 nM in experiment [3], 195 nM in experiment [1] and 368 nM in [2].
Taken in the same sequence, the figures for `CN(C)CCNc1cncc(-c2ccc3[nH]cc(-c4cccc(C#N)c4)c3c2)n1` were 770 nM, 21 nM and 60 nM.
In the case of `CCOc1cncc(-c2ccc3[nH]cc(-c4ccccc4)c3c2)n1`, the IC50 in experiment [3], in experiment [1] and in [2] was over 10000 nM each time.
`CN(C)CCNc1cncc(-c2ccc3[nH]cc(-c4cccc(OC(F)(F)F)c4)c3c2)n1`: the IC50 in [3] stood at 2780 nM; in experiment [1], 134 nM; in experiment [2], 128 nM.
In the case of `CN(C)CCNc1cncc(-c2ccc3[nH]cc(-c4cccc(F)c4)c3c2)n1`, the results for the IC50 in [3], in experiment [1] and in [2] were 650 nM, 30 nM and 35 nM, respectively.
Taken in the same sequence, the figures for `FC(F)(F)c1ccc(-c2c[nH]c3ccc(-c4cncc(N5CCNCC5)n4)cc23)cc1` were 2120 nM, 260 nM and 241 nM.
For the molecule `CN(C)CCNc1cncc(-c2ccc3[nH]cc(-c4ccc(N)cc4F)c3c2)n1`, the IC50 worked out at 267 nM in experiment [3], 1700 nM in the experiment on MV4-11, 3 nM in experiment [1] and 9 nM in experiment [2].
With `CN(C)CCNc1cncc(-c2ccc3[nH]cc(-c4ccc(S(C)(=O)=O)cc4)c3c2)n1`, the Activity with HepG2 [4] turned out to be 20.9%; with HepG2 [5] it was 19.3%; in the experiment on HepG2 [6], 20.7%; in the experiment with HepG2 [7], 2.7%; with HepG2 [8], 52.5%; in the experiment with HepG2 [9], 1.6%. Also, the Activity with HepG2 [10] is listed as 17.9%; with HepG2 [11] it was 51.7%. Besides, the IC50 in experiment [3] amounted to 2160 nM; in the experiment on MV4-11, 7300 nM; in experiment [1], 21 nM; in experiment [2], 50 nM.
As for `CN(C)CCOc1cncc(-c2ccc3[nH]cc(-c4ccc(C(F)(F)F)cc4)c3c2)n1`, the IC50 is over 10000 nM in [3], 443 nM in [1] and 877 nM in [2].
Taken in the same sequence, the figures for `CN(C)CCNc1cncc(-c2ccc3[nH]cc(-c4ccc(OC(F)(F)F)cc4)c3c2)n1` were 4440 nM, 96 nM and 236 nM.
Taken in the same sequence, the figures for `COc1ccc(-c2c[nH]c3ccc(-c4cncc(NCCN(C)C)n4)cc23)cc1` were 870 nM, 9 nM and 30 nM.
The like results for `CN(C)CCNc1cncc(-c2ccc3[nH]cc(-c4ccc(F)cc4)c3c2)n1` were, in that order, 1620 nM, 22 nM and 82 nM.
As to `NC1CCCN(c2cncc(-c3ccc4[nH]cc(-c5ccccc5F)c4c3)n2)C1` (configuration not stated), the IC50 in experiment [3] came out at 1380 nM; in experiment [1], 7 nM; in [2] it was 11 nM.
For the molecule `FC(F)(F)c1ccc(-c2c[nH]c3ccc(-c4cncc(OC5CCNCC5)n4)cc23)cc1`, the IC50 in experiment [3] turned out to be 4350 nM; in experiment [1], 187 nM; in experiment [2] it was 204 nM.
For the molecule `CN(C)CCNc1cncc(-c2ccc3[nH]cc(-c4ccc(N)cc4)c3c2)n1`, the IC50 amounted to 460 nM in experiment [3], 8 nM in experiment [1] and 29 nM in [2].
As to `CN(C)CCNc1cncc(-c2ccc3[nH]cc(-c4cc(C(=O)O)ccc4F)c3c2)n1`, the IC50 was determined as 1430 nM in experiment [3], 23 nM in experiment [1] and 137 nM in experiment [2].
The like results for `CN(C)CCCN(C)c1cncc(-c2ccc3[nH]cc(-c4ccc(C(F)(F)F)cc4)c3c2)n1` were, in that order, over 10000 nM, 209 nM and 475 nM.
Taken in the same sequence, the figures for `Cc1ccc(-c2c[nH]c3ccc(-c4cncc(NCCN(C)C)n4)cc23)cc1` were 1800 nM, 19 nM and 33 nM.
Take `Cc1cccc(-c2c[nH]c3ccc(-c4cncc(NCCN(C)C)n4)cc23)c1`: the IC50 in [3] amounted to 830 nM; in experiment [1], 21 nM; in experiment [2], 29 nM.
The like results for `CN(C)CCNc1cncc(-c2ccc3[nH]cc(-c4ccc(-c5ccccc5)cc4)c3c2)n1` were, in that order, 5330 nM, 160 nM and 417 nM.
Take `CN1CCC(CNc2ccc3ncc(-c4cccc(OC(F)(F)F)c4)n3n2)CC1` [SGI-1776]: the Activity in the experiment with HepG2 [4] is reported as 8.3%; with HepG2 [5] it was 13.3%; in the experiment on HepG2 [6] it was 19.8%; in the experiment with HepG2 [7] it was 52.3%; with HepG2 [8], 36.9%; with HepG2 [9], 16%. Also, the Activity in the experiment with HepG2 [10] worked out at 1.9%; in the experiment on HepG2 [11], 44.2%. It took 30 nM to reach half-maximal inhibition in the experiment on MV4-11 (IC50).
